Marks after values point to notes of the source that are not given here.
Test: Pharmacokinetic comparison of ADX-102 (reproxalap) and compound I-1 in rats
Type: in vivo, Sprague-Dawley rats
Settings: SD Rat
[1] = oral gavage 10 mg/kg, CMC/Tween

- Vss (intravenous data using captisol formulation): 1.36 L/kg
- CL (intravenous data using captisol formulation, in mL/min/kg): 23**
- AUC 0-inf/Dose [1]: 64
- AUC 0-t/Dose [1]: 60
- AUC(0-inf) [1]: 640 ng·h/mL
- AUC(0-t) [1]: 595 ng·h/mL
- Cmax [1]: 390 ng/mL
- Tmax [1]: 0.5 h
- t1/2 [1]: 2.27 h
Compound: CC(C)(O)c1nc2ccc(Cl)cc2cc1N [ADX-102]

Reference: US12064516B2, “Pharmaceutical formulations and uses thereof” (Aldeyra Therapeutics, Inc., priority 2020, dated 2024)
